Reference: patent US20220213060A1, “Crystal Form of Quinazolinone Compound and Preparation Method Therefor” (Luoxin Healthcare Science and Technology Development …, priority 2019, published 2022)

Legend:
[1] = Solid stability test of crystal form A (influencing factors and accelerated conditions, HPLC/XRPD); type: physicochemical
Method: 1.5 High Performance Liquid Chromatograph Method
Sample concentration: 0.5 mg/mL
The stability of the crystal form A of the compound represented by formula (I) was investigated according to the Guideline for Stability Testing of APIs and Formulations (Chinese Pharmacopoeia 2015 Edition IV General Rule 9001).
5 mg of the crystal form A of the compound represented by formula (I) was weighed separately, placed in a dry and clean glass bottle, in duplicate, spread into a thin layer, as a formal test sample, the two samples were placed under the test conditions of influencing factors (60° C., 92.5% relative humidity) and accelerated conditions (30° C./65% relative humidity, 40° C./75% relative humidity and 60° C./75% relative humidity), the samples were fully exposed, covered with aluminum foil and pierced with small holes. Sampling and analysis were performed on day 5, day 10, and 1 month. Samples placed under illumination (total illumination 1200000 Lux·hr, near ultraviolet 200 w·hr/m^2) were completely exposed at room temperature.

[2] = tested on: human ovarian cancer SKOV-3 (PIK3CA H1047R mutation); experiment: In vivo pharmacodynamic study, SKOV-3 nude mouse subcutaneous xenograft tumor model; parameters: species or system BALB/c nude mice; details: for T/C % / TGI %: oral once a day for 28 days
Method: Human SKOV-3 ovarian cancer cells with PIK3CA H1047R mutation. This experiment evaluated the efficacy of the crystal form A of the represented by formula (I) in a human ovarian cancer xenograft tumor model.
Cell culture: Human ovarian cancer SKOV-3 cells were cultured in vitro in a single layer, the culture condition was RPMI-1640 medium with 10% fetal bovine serum, and the cells were incubated in 5% CO2 at 37° C. Digestion and passage treatment with trypsin-EDTA was carried out twice a week. When the cell saturation was 80%-90% and the number reached the requirement, the cells were collected, counted and inoculated.
Animals: BALB/c nude mice, female, 6-8 weeks old, weighing 18-20 g. A total of 67 animals were required, and provided by Beijing Vital River Biotechnology Co., Ltd.
Tumor inoculation: 0.2 mL (10×10^6 cells) of SKOV-3 cells (with matrigel in a volume ratio of 1:1) were subcutaneously inoculated on the right back of each mouse, group administration was started when the average tumor volume reached 150 mm^3-200 mm^3.
Tumor-bearing mice in each administration group had good tolerance to the tested compounds.

p-AKT = experiment: Western blot analysis of p-AKT protein expression level in BT474 tumor tissue samples; type: in vivo; details: BT-474 nude mouse transplanted tumor model, 0.5 h, 4 h, 24 h after administration
Method: 7.1 Protein extraction and quantification
1) Quick-frozen tissue samples were taken out from the refrigerator at −80° C.
2) Operating on dry ice, cutting part of the tissues (about 30 mg), putting them into a 2 mL centrifuge tube with steel balls, and adding 500 μL of cell lysate RIPA (1% protease inhibitor and phosphatase inhibitor had been newly added).
3) Tissue was broken for 5 minutes using the highest frequency of Tissuelyser LT.
4) The tissue lysate was placed on ice for 30 minutes.
5) Centrifuging at 12,000 rpm at 4° C. for 10 minutes and removing the supernatant into a new 1.5 mL centrifuge tube.
6) The protein was quantified by BCA quantitative kit.
7) According to the quantitative results, the protein sample for loading was prepared, the protein concentration of the sample was unified to 2 μg/μL, LDS loading buffer (4×) and sample reducing agent (10×) were added, and the sample was heated at a constant temperature of 100° C. for 10 minutes.
8) Western blotting, or storing the denatured samples in a refrigerator at −80° C.
1) The sample for loading was thawed. […]
5) After the membrane transfer was finished, the membrane was cut according to the molecular weight of the protein to be detected, the membrane was washed with 1×TBST for 3 times and 5 minutes each time, and was shaken at room temperature. […]
13) Chemiluminescence was detected and photographed on the Tanon 5200 multi machine.

[3] = 30° C., relative humidity 65%, open, 1 month
[4] = 30° C., relative humidity 65%, open, Day 10
[5] = 40° C., relative humidity 75%, open, 1 month
[6] = 40° C., relative humidity 75%, open, Day 10
[7] = 60° C., relative humidity 75%, open, 1 month
[8] = 60° C., relative humidity 75%, open, Day 10
[9] = High humidity (25° C./92.5% relative humidity, open), Day 5
[10] = High humidity (25° C./92.5% relative humidity, open), Day 10
[11] = High temperature (60° C., open), Day 5
[12] = High temperature (60° C., open), Day 10
[13] = Illumination (total illumination 1.2 × 106 Lux · hr/near ultraviolet 200 w · hr/m^2, open), Day 10
[14] = In the absence of light, Day 10
[15] = 10 mg/kg, listed as crystal form A of the compound represented by formula (I)
[16] = 20 mg/kg, listed as crystal form A of the compound represented by formula (I)
[17] = 40 mg/kg, listed as crystal form A of the compound represented by formula (I)

CNC(=O)[C@H](C)Cn1cnc2ccc(-c3cnc(OC)c(NS(=O)(=O)c4ccc(F)cc4F)c3)cc2c1=O
Content of the crystal form A of the compound represented by formula (I) (%) [1, 3]: 101.64% | Total impurity content (%) [1, 3]: 0.14% | Content of the crystal form A of the compound represented by formula (I) (%) [1, 4]: 104.28% | Total impurity content (%) [1, 4]: 0.14% | Content of the crystal form A of the compound represented by formula (I) (%) [1, 5]: 103.86% | Total impurity content (%) [1, 5]: 0.16% | Content of the crystal form A of the compound represented by formula (I) (%) [1, 6]: 103.79% | Total impurity content (%) [1, 6]: 0.15% | Content of the crystal form A of the compound represented by formula (I) (%) [1, 7]: 103.30% | Total impurity content (%) [1, 7]: 0.14% | Content of the crystal form A of the compound represented by formula (I) (%) [1, 8]: 103.63% | Total impurity content (%) [1, 8]: 0.14% | Content of the crystal form A of the compound represented by formula (I) (%) ([1]; Day 0): 103.08% | Total impurity content (%) ([1]; Day 0): 0.14% | Content of the crystal form A of the compound represented by formula (I) (%) [1, 9]: 103.08% | Total impurity content (%) [1, 9]: 0.14% | Content of the crystal form A of the compound represented by formula (I) (%) [1, 10]: 103.95% | Total impurity content (%) [1, 10]: 0.14% | Content of the crystal form A of the compound represented by formula (I) (%) [1, 11]: 104.39% | Total impurity content (%) [1, 11]: 0.14% | Content of the crystal form A of the compound represented by formula (I) (%) [1, 12]: 102.00% | Total impurity content (%) [1, 12]: 0.14% | Content of the crystal form A of the compound represented by formula (I) (%) [1, 13]: 103.04% | Total impurity content (%) [1, 13]: 0.14% | Content of the crystal form A of the compound represented by formula (I) (%) [1, 14]: 102.57% | Total impurity content (%) [1, 14]: 0.15% | Stability (conclusion of the solid stability test) ([1]; all test conditions of Table 7): good stability | Anti-tumor effect (in words) ([2]; 10 mg/kg): a certain anti-tumor effect | T/C % ([2]; 10 mg/kg): 69.17% | TGI % ([2]; 10 mg/kg): 30.45% | T/C % [2, 15]: 69.17% | TGI % [2, 15]: 30.45% | Anti-tumor effect (in words) ([2]; 20 mg/kg): a certain anti-tumor effect | T/C % ([2]; 20 mg/kg): 60.61% | TGI % ([2]; 20 mg/kg): 41.42% | T/C % [2, 16]: 60.61% | TGI % [2, 16]: 41.42% | Anti-tumor effect (in words) ([2]; 40 mg/kg group): significant anti-tumor effects | T/C % ([2]; 40 mg/kg): 37.79% | TGI % ([2]; 40 mg/kg): 69.16% | T/C % [2, 17]: 37.79% | TGI % [2, 17]: 69.16% | Akt phosphorylation level downstream of PI3K in tumor tissue (Western blot, FIG. 10) (p-AKT): significantly inhibit
